Measured values taken from patent US8445207B2, “Genes based on thalidomide, valproic acid and methotrexate treatment for screening of drug inducing teratogenicity and screening method using thereof” (priority 2009, dated 2013).

System: JEG-3 (human placental choriocarcinoma cell line)
Test: Oligo microarray gene expression in drug-treated JEG-3 (Cy5 treated / Cy3 control)
Format: cell-based
Experimental: Thalidomide, valproic acid, and methotrexate were treated to human placental choriocarcinoma cell line at the concentrations determined above (Inhibition concentration: the concentration that can kill approximately 30% of the total cells, that is the concentration of 70% viability, IC30). mRNA was extracted from the drug treated cell line, followed by synthesis of cDNA which was labeled with Cy5. The non-treated control was labeled with Cy3. The fluorescence labeled cDNA was hybridized with 41K (thalidomide), 44K (valproic acid, methotrexate) human whole genome oligomicroarray chips (Agilent, USA), followed by fluorescent image scanning to analyze gene expression patterns (see FIG. 4). Volcano Plot of each substance was also attached. Y axis indicates probability (generally converted by −log 10). X axis indicates differential expression, which is presented by log-ratio.
Total RNA was separated from the treated cell by using trizol reagent (Invitrogen Life Technologies, USA) according to the manufacture's instructions, followed by purification using RNeasy mini kit (Qiagen, USA). Genomic DNA was eliminated during RNA purification using RNase-free DNase set (Qiagen, USA).
30 μg of the total RNA obtained above and 2 μg (1 μg/μl) of oligo (dT) primer were mixed, followed by reaction at 65° C. for 10 minutes. Annealing was performed in ice right after the reaction. Reagents were prepared as shown in Table 1 for reverse transcription of the annealed RNA.
The total RNA separated from the control group JEG-3 cells was labeled with Cy3-dUTP (green) and the total RNA separated from the experiment group JEG-3 cells treated with thalidomide, valproic acid and methotrexate was labeled with Cy5-dUTP (red). At this time, the two samples were mixed and purified by Microcon YM-30 column (Millipore, USA).
Hybridization and washing were performed by the manufacturer's (GenoCheck, Korea) instructions. Particularly, hybridization was performed in a 62° C. oven for 12 hours. As a DNA microarray chip, 44 k whole human genome oligo microarray (Agilent, USA) was used. After washing (2 minutes with 2×SSC/0.1% SDS, three minutes with 1×SSC, 2 minutes with 0.2×SSC), the slide was dried by centrifugation at 800 rpm for 3 minutes.
Hybridization image on the slide was scanned with Genepix 4000B (Axon Instruments, USA). Fluorescence image of the chip on which non-hybridized genes had been washed out was obtained by using laser fluorescence scanner. Green fluorescence image indicates the activity of gene specifically expressed in the control group and red fluorescence image indicates the activity of gene specifically expressed in the experimental group. […] Scanned image was analyzed by using GenePix 4.1 software (Axon Instruments, USA) to calculate gene expression rate.

SMILES: CN(Cc1cnc2nc(N)nc(N)c2n1)c1ccc(C(=O)N[C@@H](CCC(=O)O)C(=O)O)cc1 [MTX, methotrexate]
- cDNA microarray (Cy3/Cy5 ratio), KIAA0310 (GenBank AB002308): 2.29
- cDNA microarray (Cy3/Cy5 ratio), ATP10B (GenBank AB018258): 4.95
- cDNA microarray (Cy3/Cy5 ratio), TTF2 (GenBank AB209845): 1.94
- cDNA microarray (Cy3/Cy5 ratio), TncRNA (GenBank AF001893): 2.11
- cDNA microarray (Cy3/Cy5 ratio), C4orf19 (GenBank AK001879): 4.69
- cDNA microarray (Cy3/Cy5 ratio), CYP19A1 (GenBank AK023571): 2.72
- cDNA microarray (Cy3/Cy5 ratio), SLC40A1 (GenBank AK023574): 3.06
- cDNA microarray (Cy3/Cy5 ratio), ABTB2 (GenBank AK095632): 4.65
- cDNA microarray (Cy3/Cy5 ratio), TUBB3 (GenBank AK122757): 7.85
- cDNA microarray (Cy3/Cy5 ratio), MGC27016 (GenBank AK125877): 1.52
- cDNA microarray (Cy3/Cy5 ratio), GLCCI1 (GenBank AK126731): 2.84
- cDNA microarray (Cy3/Cy5 ratio), TFCP2L4 (GenBank BC036890): 4.11
- cDNA microarray (Cy3/Cy5 ratio), RGS2 (GenBank BC042755): 9.24
- cDNA microarray (Cy3/Cy5 ratio), SIAT7A (GenBank BC063830): 15.01
- cDNA microarray (Cy3/Cy5 ratio), B7-H4 (GenBank BX648021): 0.27
- cDNA microarray (Cy3/Cy5 ratio), COBLL1 (GenBank BX649112): 4.89
- cDNA microarray (Cy3/Cy5 ratio), CGA (GenBank NM_000735): 8.07
- cDNA microarray (Cy3/Cy5 ratio), PARP1 (GenBank NM_001618): 0.6
- cDNA microarray (Cy3/Cy5 ratio), SERPINB9 (GenBank NM_004155): 4.04
- cDNA microarray (Cy3/Cy5 ratio), ST8SIA4 (GenBank NM_005668): 1.82
- cDNA microarray (Cy5 treated / Cy3 control ratio), ABL1 (GenBank NM_007313): 0.49
- cDNA microarray (Cy3/Cy5 ratio), GRLF1 (GenBank NM_024342): 0.29
- cDNA microarray (Cy3/Cy5 ratio), LGP1 (GenBank NM_032484): 0.49
- cDNA microarray (Cy3/Cy5 ratio), NCOA3 (GenBank NM_181659): 2.12
- cDNA microarray (Cy3/Cy5 ratio), SR140 (GenBank XM_031553): 0.66
- cDNA microarray (Cy3/Cy5 ratio), SLC7A8 (GenBank Y18483): 3.76
- Ratio of intermediate value, NLGN1 (Genbank AB028993, drug at IC30): 0.25
- Ratio of intermediate value, VARS2L (Genbank AB067472, drug at IC30): 0.46
- Ratio of intermediate value, PPAT (Genbank AB209246, drug at IC30): 0.44
- Ratio of intermediate value, SEMA3B (Genbank AB209322, drug at IC30): 0.48
- Ratio of intermediate value, SCLY (Genbank AB209458, drug at IC30): 0.41
- Ratio of intermediate value, C8orf1 (Genbank AF061326, drug at IC30): 0.46
- Ratio of intermediate value, KUB3 (Genbank AF078164, drug at IC30): 0.45
- Ratio of intermediate value, GTF2H2 (Genbank AF078847, drug at IC30): 0.44
- Ratio of intermediate value, PARD3 (Genbank AF196185, drug at IC30): 0.28
- Ratio of intermediate value, Homo sapiens cDNA FLJ12651 fis, clone NT2RM4002062 (Genbank AK022713, drug at IC30): 0.21
- Ratio of intermediate value, BCAT2 (Genbank AK023909, NM_001190, drug at IC30): 0.35
- Ratio of intermediate value, ASS (Genbank AK027126, drug at IC30): 0.19
- Ratio of intermediate value, SHMT2 (Genbank AK055053, drug at IC30): 0.42
- Ratio of intermediate value, FLJ23441 (Genbank AK056980, drug at IC30): 0.41
- Ratio of intermediate value, RUVBL2 (Genbank AK057498, drug at IC30): 0.42
- Ratio of intermediate value, ERCC2 (Genbank AK092872, drug at IC30): 0.40
- Ratio of intermediate value, PHGDH (Genbank AK093306, drug at IC30): 0.16
- Ratio of intermediate value, GLUD1 (Genbank AK122685, drug at IC30): 0.34
- Ratio of intermediate value, HMGB1 (Genbank AK122825, drug at IC30): 0.37
- Ratio of intermediate value, YARS (Genbank AK125213, drug at IC30): 0.38
- Ratio of intermediate value, FANCF (Genbank BC005077, NM_022725, drug at IC30): 0.40
- Ratio of intermediate value, C9orf103 (Genbank BC036421, drug at IC30): 0.38
- Ratio of intermediate value, CAD (Genbank BC065510, drug at IC30): 0.40
- Ratio of intermediate value, GRLF1 (Genbank BI494022, NM_024342, drug at IC30): 0.29
- Ratio of intermediate value, CIB1 (Genbank BM467105, drug at IC30): 0.44
- Ratio of intermediate value, RAD51L1 (Genbank BX248766, drug at IC30): 0.43
- Ratio of intermediate value, NBS1 (Genbank BX640816, drug at IC30): 0.31
- Ratio of intermediate value, B7-H4 (Genbank BX648021, drug at IC30): 0.27
- Ratio of intermediate value, APEX1 (Genbank CR611116, drug at IC30): 0.33
- Ratio of intermediate value, GNAO1 (Genbank CR936770, drug at IC30): 0.49
- Ratio of intermediate value, DCLRE1A (Genbank D42045, drug at IC30): 0.43
- Ratio of intermediate value, CBS (Genbank L00972, drug at IC30): 0.47
